Data on 6 molecules can be found in patent US7476383B2, “Antibody selective for DR4 and uses thereof” (The UAB Research Foundation, priority 2000, dated 2009).

Residues, ends and D or L forms follow the SMILES beside them. *: point of attachment. Cbz = O=C(OCc1ccccc1)*; CH2F = FC*

In one data set the test system is Jurkat cells. The experiment in a line: Jurkat cell viability (ATPLite, MTT, PI exclusion). The conditions noted are these: 50 ng/ml TRA-8 overnight. Format: cell-based, human. As for the experimental part:
(§1) Cell viability is determined using (1) the ATPLite kit according to the manufacturer's instructions (Packard Instruments, Meriden, Conn.); (2) the MTT Cell proliferation/viability kit (Sigma); or (3) PI staining of dead cells and analyzed by flow cytometry. At end of culture, cells are stained with 10 μg/ml PI and PI negative cells are gated as viable cells. For analysis of condensed nuclei of hepatocytes, cells are stained with 10 ng/ml […] (Molecular Probes) and analyzed by flow cytometry.

The next data set has as its system NF-κb. The experiment in a line: Gel-shift assay in RA synovial cells. The conditions noted are these: 50 ng/ml TRAIL, Fas ligand or TRA-8, 20 ng/ml TNF-a. Format: cell-based, human. As for the experimental part:
There is considerable evidence to support the concept that there are close links between the signaling of apoptosis and the signaling of proliferation (45). It has been established that DR5 is able to activate a NF-kb pathway in addition to apoptosis signaling transduction, and that NF-κb activation may be able to transduce an anti-apoptosis signal. Therefore a gel-shift assay is carried out. […] The nuclear extracts are prepared and incubated with the […] [^32P]-labeled oligo-DNA probe. The results are analyzed using the cyclone phospha-imager (TopCount NXT, Packard Instrument Company, CT).

Another data set deals with MMP-1 and MMP-3. The experiment in a line: MMP ELISA of RA synovial cell supernatants. Format: cell-based, human. The conditions noted are these: RA synovial cells, overnight. As for the experimental part: Thus, it is possible that TRAIL, like TNF-α, may serve as a pro-inflammatory cytokine. […] The levels of the MMP-1 and MMP-3 in the culture supernatants are determined by the ELISA kits.

The target in another data set is T1, DR4 (Homo sapiens, UniProt O00220).
T1 construct: fusion protein comprising the extracellular domain of human DR5 or DR4 and the Fc region of human IgG1
T1 sequence (O00220 24-239 limits assumed): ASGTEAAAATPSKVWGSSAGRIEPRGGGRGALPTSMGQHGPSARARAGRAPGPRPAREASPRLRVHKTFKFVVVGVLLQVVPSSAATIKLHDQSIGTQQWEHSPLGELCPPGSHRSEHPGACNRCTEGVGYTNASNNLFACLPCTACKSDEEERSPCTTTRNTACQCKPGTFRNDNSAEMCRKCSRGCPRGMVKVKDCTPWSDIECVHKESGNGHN
In words: ELISA binding to DR4-Ig fusion protein. As to conditions: ELISA plates coated with DR4/hIgG1. As for the experimental part:
ELISA plates are coated with 2 μg/ml of DR4-Ig or DR5-Ig fusion protein overnight. […] The reactions are developed by TMB substrate buffer and measured by the Benchmark Microplate Reader (BioRad). The Kd values are estimated by the one-site binding model of non-linear regression using GraphPad Prism software (GraphPad Software, San Diego, Calif.).
In general terms: An ELISA detects its analyte on a solid surface through an enzyme-linked reagent.

For another data set, the system named is Daudi. The experiment in a line: Apoptosis by ATPLite, overnight. The format is cell-based, human. The conditions noted are these: B lymphoma line Daudi. As for the experimental part:
as §1
On the technique in general: Cellular ATP, detected with luciferase, serves as a proxy for viable cell number.

The subject of the next data set is H-9 cells. The experiment in a line: Apoptosis by ATPLite, overnight. Format: cell-based, human. As to the method:
as §1

A further data set has as its system Hs683 and U251-MG. In words: Apoptosis by ATPLite, overnight. The format is cell-based, human. As to conditions: glioma lines Hs683 and U251-MG. As to the method:
as §1

For a further data set, the system named is Jurkat and CEM-6. The experiment in a line: Apoptosis by ATPLite, overnight. The format is cell-based, human. As for the experimental part:
as §1

The test system of the next data set is Molt-4 and U937 cells. The experiment in a line: Apoptosis by ATPLite, overnight. The format is cell-based, human. As to the method: as §1
The test system of data set [1] is Primary peripheral blood T cells. In words: Apoptosis by ATPLite, overnight. Format: cell-based, human. As to the method:
as §1

The subject of the next data set is SKW6.4, EB-3, and Raji. In words: Apoptosis by ATPLite, overnight. The format is cell-based, human. The conditions noted are these: B lymphoma lines SKW6.4, EB-3, Raji. As for the experimental part:
as §1

The next data set deals with U87, U937 and Molt-4. The experiment in a line: Apoptosis by ATPLite, overnight. Format: cell-based, human. The conditions noted are these: glioma line U87, hematopoietic lines U937 and Molt-4. As for the experimental part: as §1
A further data set deals with primary B cells. The experiment in a line: Apoptosis by ATPLite, overnight. The format is cell-based, human. As for the experimental part:
as §1

The subject of another data set is OA synovial cells. In words: Apoptosis of primary synovial cells. The format is cell-based, human. The conditions noted are these: OA72M cells. An excerpt: (§2) Cell viability is the percentage of the cpm of treated cells versus the cpm of untreated cells.
(§3) The expression of DR5 on a panel of eight primary cultured synovial cells from patients with RA is compared with that on eight primary cultured synovial cells from patients with osteoarthritis (hereinafter referred to as “OA”). The eight human primary RA synovial cell cultures RA-1014, RA-1016, RA-1021, RA-512, RA-707, RA-811, RA-716, and RA-929 are kindly provided by Dr. M. Ohtsuki (Sankyo Co. Ltd., Tokyo, Japan) and cultured in DMEM supplemented with 10% FCS, penicillin, streptomycin, and glutamine. The […] OA synovial cell primary cell cultures are isolated from the synovial tissues of OA patients by a standard collagenase method and cultured under the same conditions. The passage number of all primary cells is under 10. The expression of DR5 is determined by FACs analysis as described in Example 5.

A further data set concerns RA synovial cells. The experiment in a line: Apoptosis of primary synovial cells. Format: cell-based, human. As to conditions: RA-1014, RA-811, RA-716, RA929; high concentrations (>50 ng/ml).
From the text: as §2, §3

A further data set deals with normal human hepatocytes. In words: Hepatocyte viability (ATPLite). Format: cell-based. An excerpt:
For 24-hour cell viability assays, fresh normal human hepatocytes in 96-well plates were purchased from In Vitro Technology (Baltimore, Md.). […] For 6-hour viability assays, normal hepatocytes or hepatocellular cancer cells are isolated from fresh surgical specimens collected from UAB Tissue Procurement Center. All reagents for isolation of human hepatocytes including hepatocytes perfusion buffer, digest medium, washing medium, and attachment medium were purchased from Gibco. The tissue slides are digested in the Hepatocyte Digest Medium at 37° C. with shaking (50 rpm) for one hour. The isolated hepatocytes are harvested by low speed centrifugation (50 g, 3 min), and washed with the Hepatocyte Washing Medium six times. Single cell suspension of hepatocytes are cultured in the Attachment Medium containing 10% FCS in 96-well Matrigel plates (BD) for six hours. Non-attached hepatocytes are removed by twice washing with pre-warmed attachment medium.

Data set [2] deals with 2LMP human breast cancer xenografts. The experiment in a line: 2LMP breast cancer xenografts in athymic nude mice. The format is in vivo. As for the experimental part:
Nude mice were inoculated s.c. with the human breast cancer cell line, 2LMP. Treatment with i.p. doses of 200 μg of 2E12 occurred on days 7, 10, 14, 17, 21, and 24 after tumor cell injection. Animals received i.v. adriamycin (doxorubicin) (6 mg/kg) on days 8, 12, and 16.
Athymic nude mice were injected s.c. with 3×10^7 2LMP cells. […] The growth of tumors was monitored over time. […] Tumor size and regression rates were determined.
Data from 6 independent experiments were analyzed by individual experiment. Treatment combinations were compared with respect to in vivo anti-tumor efficacy, i.e., inhibition of tumor growth, which was measured as three endpoints; extension of tumor doubling times, percentage of tumor regressions, and growth rates over time. The actual number of days at which the tumor doubled in surface area (product of two diameters) relative to baseline on day 7 after tumor cell injection was used in the doubling time analysis. The nonparametric Kruskal-Wallis test was used for median tumor doubling time comparisons between treatments. Fisher's exact test was used to compare the proportions of tumor regressions and relapse-free regressions across treatment groups. To determine if any combination therapy produced significant synergistic inhibition of tumor growth, i.e., more than additive, the growth curves from the serial area measurements were compared using a linear mixed model approach over the first 3 weeks after start of therapy (Lindsey, J. K. Models for Repeated Measurements, pp. 100-142, Oxford, 1993). To test for synergistic effects of the combination therapies, an interaction term was included in the model. If the interaction term was significant and the effect was inhibition of growth at a rate greater than additive then the interaction was considered synergistic.
A total of 166 animals, 10 treatment groups, and 6 independent experiments were included in the aggregate analysis. Treatment combinations were compared with respect to in vivo anti-tumor efficacy. The median tumor doubling times were analyzed using the Kruskal-Wallis test and Fisher's exact test was used to compare the proportions of tumor regressions and relapse-free regressions across treatment groups.

A further data set relates to 2LMP xenografts. The experiment in a line: TUNEL analysis of apoptosis in xenografts. Format: in vivo, athymic nude mice. As to conditions: day 14; untreated 1%. As for the experimental part: One group of mice was untreated. The xeno grafts were dissected for the study of apoptosis on day 14 after tumor cell injection. The reason for the substantial reduction in treatment intensity compared to our standard treatment protocol was to allow adequate tumor tissue for analysis on day 14. Tunel assay for apoptosis in tumor xenografts was performed as follows. Five-micron paraffin sections of tissue were mounted on Superfrost/Plus slides and heated at 58° C. for 1 h. Tissue sections were deparaffinized in three changes of xylene and rehydrated with one change of absolute ethanol, 95% ethanol, and 70% ethanol, each in 5-min increments. Then, the sections were placed in Tris-buffered saline (0.5M Tris base, 0.15 M NaCl, 0.0002% Triton X-100, pH 7.6). Apoptotic nuclei were detected using an Apop Tag Peroxidase kit (Intergen, Purchase, N.Y.). Proteinase K (20 μg/ml in distilled deionized H2O) was added to the tissue specimens and incubated at room temperature for 15 min. Endogenous peroxidases were quenched with an aqueous solution of 3% hydrogen peroxide for 5 min. […] Approximately 10 random fields were evaluated for percentage of Tunel stained and percentage of intensely stained apoptotic bodies throughout the tissue.

Where [3] appears, read: aggregate, number of animals (%).

Take `CC(NC(=O)C(NC(=O)OCc1ccccc1)C(C)C)C(=O)NC(CC(=O)O)C(=O)CF` (stereo not drawn) [Z-VAD] (Cbz-Val-Ala-Asp-CH2F; configuration not given here): in the data set with Jurkat cells, the “inhibition of TRA-8-induced cell death” value is given as “completely inhibited”.

Regarding TNF-α, the NF-κb activation entry in the data set with NF-κb is on record as “activated in a time-dependent fashion”. Besides, the “production of MMPs” value in the data set on MMP-1 and MMP-3 is listed as “increased”.

Turning to “TRAIL: soluble recombinant human TRAIL (aa 95 to 281) with FLAG tag, Alexis; used with anti-FLAG crosslinker”, the “binding activity to DR4” value in the data set with DR4 is on record as “bound to DR4”. Further, the susceptibility to apoptosis result in the data set on Daudi was “much less susceptible”; in the data set on H-9 cells, “resistant”; in the data set on Jurkat and CEM-6, “highly susceptible”; with Molt-4 and U937 cells, “partially susceptible”; in [1] it was “resistant”; in the data set with SKW6.4, EB-3, and Raji, “very susceptible”. In addition, the susceptibility to apoptosis result in the data set on OA synovial cells is on record as “completely resistant”. Further, the sensitivity to apoptosis entry in the data set with Hs683 and U251-MG is given as “resistant”; in the data set on U87, U937 and Molt-4 it was “exhibited sensitivity”. For the same molecule, the apoptosis after treatment entry with primary B cells is given as “did not undergo apoptosis”. In the data set with RA synovial cells, this molecule returned a cell death of approximately 100%. For the same molecule, the NF-κb activation result in the data set with NF-κb is “activated in a time-dependent fashion”. Moreover, in the data set with MMP-1 and MMP-3, the “production of MMPs” value was “not associated with increased release”. Also, the hepatocytes killed result is recorded as “Over 20%” in the data set on normal human hepatocytes (6-hour culture, 500 ng/ml TRAIL) and “more than 80%” in the data set on normal human hepatocytes (24-hour culture, 1 μg/ml, TRAIL plus crosslinker). Further, the “hepatocytes killed in the presence of cycloheximide” value in the data set with normal human hepatocytes (four-hour culture, 1 μg/ml cycloheximide) is listed as “greater than 70%”.

Consider IL-1b: proinflammatory cytokine, for which the “production of MMPs” value with MMP-1 and MMP-3 is given as “increased”.

Consider `COc1cccc2c1C(=O)c1c(O)c3c(c(O)c1C2=O)C[C@@](O)(C(=O)CO)C[C@@H]3O[C@H]1C[C@H](N)[C@H](O)[C@H](C)O1` [Adriamycin, adriamycin], for which, in data set [2] (setting [3]), the “Complete Regressions No relapse (%)” value came out at 0 and the “Complete Regressions Total (%)” value was determined as 0. In data set [2] (individual experiments (FIG. 25-27), animals), the “complete regressions of tumor” value was “no complete regressions”. Besides, the “inhibition of tumor growth compared to untreated controls” value in [2] (individual experiments, TRA-8 200 μg i.p. x6, Kruskal-Wallis test) is “did not differ from controls”. Moreover, in the data set with 2LMP xenografts, the “intense TUNEL stained cells” value is listed as 6%.

B1: Fas ligand: recombinant soluble Fas ligand used with enhancer (protein, UniProt P48023 103-281, looked up)
extracellular domain: QLFHLQKELAELRESTSQMHTASSLEKQIGHPSPPPEKKELRKVAHLTGKSNSRSMPLEWEDTYGIVLLSGVKYKKGGLVINETGLYFVYSKVYFRGQSCNNLPLSHKVYMRNSKYPQDLVMMEGKMMSYCTTGQMWARSSYLGAVFNLTSADHLYVNVSELSLVNFEESQTFFGLYKL
modifications: extracellular domain
notes: recombinant soluble Fas ligand used with enhancer
For the molecule B1, the NF-κb activation result with NF-κb is “unable to induce NF-κb activation”.
